Laboratory results taken from patent US20120021434A1, “METHOD FOR TREATING B CELL REGULATED AUTOIMMUNE DISORDERS” (Synta Pharmaceuticals Corp., priority 2005, published 2012).

How the values were obtained:
Format in all cases: cell-based
NF-κB p65 = test: Kinetics of p65 nuclear translocation in LPS-stimulated THP1 cells (immunoblot, densitometry); details: 100 nM
Protocol: Compound 50 impairs nuclear accumulation of c-Rel and slightly reduces nuclear accumulation of p50. We examined the nuclear translocation kinetics of NF-κB family members in LPS stimulated cells treated with Compound 50. THP1 cells were stimulated with LPS in either the presence or absence of 100 nM Compound 50, and the distribution of the NF-κB Rel family members was determined by immunoblotting nuclear (n.p.) extracts collected at 5 min, 15 min, 30 min, 1 h, 3 h and 6 h post-treatment. In response to LPS stimulation, p50 translocated into the nucleus as early as 5 minutes post-stimulation and accumulates as time goes on (FIG. 4, immunoblots and FIG. 5 densitometry). […] The experiment examining p65 nuclear translocation is shown in FIG. 6 (immunoblots) and FIG. 7 (densitometry). In LPS stimulated cells, p65 translocated into the nucleus as early as 5 minutes post-stimulation and accumulated to maximum levels at 15-30 minutes post-stimulation. Treatment of LPS-stimulated cells with Compound 50 had no effect on the kinetics of p65 nuclear entry.

c-Rel = molecular target: T1, c-Rel (Mus musculus, UniProt P15307); test: Immunoblot and densitometry of nuclear c-Rel in LPS/IFNγ-stimulated Raw264.7 cells; details: Raw264.7, LPS/IFNγ, immunoblot densitometry
T1 construct: nuclear extracts from RAW cells stimulated with LPS/IFNγ; endogenous in cells; host or cells: RAW264.7
Protocol: Methods: 20×10^6 Raw 264.7 cells were treated with either DMSO, LPS/IFNγ, or LPS/IFNγ/Compound 50. (LPS conc. 1 ug/ml f.c.; mouse IFNγ mouse 100 U/ml f.c, Compound 501 uM f.c). (LPS: Sigma Cat # L2654. Mouse IFNγ; Cat # R+D 485-MICF). Cells were pre-treated with Compound 50 for 30 min, then LPS/IFNγ was added. After 3 hrs, nuclear and cytoplasmic extracts were prepared according to the BD™ TransFactor Extraction Kit and user manual. Briefly, cells were washed in PBS, harvested and lysed in hypotonic lysis buffer on ice. Cells were then disrupted by drawing the cell suspension through a No. 27 gauge needle 10 times. Next, the cell suspension was centrifuged, and the cytoplasmic extract (supernatant) was collected. The nuclear pellet was then disrupted by resuspension in high salt extraction buffer and was drawn through the needle 10 times. […]
After treatment with Compound 50, nuclear extract and cytoplasmic extract were prepared from 20×10^6 Raw264.7 cells by using Extraction kits from BD Biosciences (Cat. 631921), and above for experimental details. […] Densitometry analysis was performed using Quantity One software from BioRad.
The reduction in c-RelDNA-binding activity correlated with a 40-50% reduction in the levels of nuclear c-Rel as detected by immunoblot analysis (see immunoblot FIG. 14 and densitometry FIG. 15). […]

[1] = system: purified mouse splenic (CD19+) B cells; test: Primary mouse B cell survival, Annexin V/propidium iodide flow cytometry; details: 24 h; for viability at 0.0001 µM / viability at 0.001 µM / viability at 0.01 µM / viability at 0.1 µM / viability at 1 µM: Mus musculus, B-cell
Protocol: Therefore, the effect of Compound 50 on the activation and survival of homogeneous populations of primary B and T lymphocytes has been explored. As a first step in this process, we evaluated the effect of Compound 50 on the survival of purified mouse splenic (CD19^+) B cells. When cultured ex vivo, primary B cells undergo spontaneous apoptosis within 24-48 h in the absence of any survival signals. Examples of such stimuli include those mediated by anti-CD40 (or CD40L), BAFF, or B cell receptor signals provided by either anti-IgM or LPS. Murine primary B cells were isolated from mouse spleen using anti-CD19 coated magnetic beads (Miltenyi Biotec) according to the manufacturer's recommendations. Purified CD19^+ B cells were cultured at 100,000 cells/well in 96-well microtiter plates in culture medium (RPMI 1640 supplemented with 10% fetal bovine serum, 2 mM L-glutamine, 1 mM sodium pyruvate, 20 mM HEPES, and 55 μM β-mercaptoethanol) in the presence of 10 μg/ml anti-CD40, 5 μg/ml LPS or 100 ng/ml BAFF in the presence or absence of Compound 50 for 24 h and measured the frequency of viable and apoptotic cells using Annexin V/propidum iodide flow cytometric analysis. To perform this analysis, cells were washed with PBS and labeled with Annexin V-FITC and propidium iodide (BioVision) according to the manufacturer's instructions. Apoptotic cell (Annexin V-positive) and live cell (Annexin V-negative/propidium iodide-negative) percentages were determined using a flow cytometer.

T1 sequence (P15307 whole entry): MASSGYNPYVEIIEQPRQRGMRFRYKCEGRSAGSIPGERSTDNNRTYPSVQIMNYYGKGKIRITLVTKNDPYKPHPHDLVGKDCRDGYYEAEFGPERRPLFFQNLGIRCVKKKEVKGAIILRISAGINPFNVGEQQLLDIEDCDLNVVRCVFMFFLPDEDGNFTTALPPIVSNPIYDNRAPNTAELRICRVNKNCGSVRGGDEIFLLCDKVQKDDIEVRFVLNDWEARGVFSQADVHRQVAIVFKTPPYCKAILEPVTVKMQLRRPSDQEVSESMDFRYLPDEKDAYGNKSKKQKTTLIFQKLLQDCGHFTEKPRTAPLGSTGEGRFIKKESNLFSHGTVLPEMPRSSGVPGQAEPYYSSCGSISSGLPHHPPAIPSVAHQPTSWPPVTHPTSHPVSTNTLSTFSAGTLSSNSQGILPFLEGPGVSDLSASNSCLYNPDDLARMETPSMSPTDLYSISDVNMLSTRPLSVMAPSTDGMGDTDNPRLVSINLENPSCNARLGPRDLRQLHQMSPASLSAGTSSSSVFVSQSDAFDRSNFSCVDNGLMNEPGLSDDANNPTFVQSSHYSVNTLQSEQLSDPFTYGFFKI

- reduction in the levels of nuclear c-Rel (c-Rel): 40-50%
SMILES: Cc1cccc(/C=N/Nc2cc(N3CCOCC3)nc(OCCc3ccccn3)n2)c1 [Compound 50, N-(3-Methyl-benzylidene)-N′-[6-morpholin-4-yl-2-(2-pyridin-2-yl-ethoxy)-pyrimidin-4-yl]-hydrazine]
- kinetics of p65 nuclear entry (NF-κB p65): no effect
- level of nuclear p65 relative to untreated cells (NF-κB p65; 6 hours): small increase
- % Apoptotic ([1]; Anti-CD40 (10 μg/ml), 0.1 nM): 39%
- % Apoptotic ([1]; Anti-CD40 (10 μg/ml), 1 nM): 37%
- % Apoptotic ([1]; Anti-CD40 (10 μg/ml), 10 nM): 46%
- % Apoptotic ([1]; Anti-CD40 (10 μg/ml), 100 nM): 89%
- % Apoptotic ([1]; Anti-CD40 (10 μg/ml), 1000 nM): 90%
- % Apoptotic ([1]; BAFF (100 ng/ml), 0.1 nM): 40%
- % Apoptotic ([1]; BAFF (100 ng/ml), 1 nM): 43%
- % Apoptotic ([1]; BAFF (100 ng/ml), 10 nM): 52%
- % Apoptotic ([1]; BAFF (100 ng/ml), 100 nM): 92%
- % Apoptotic ([1]; BAFF (100 ng/ml), 1000 nM): 93%
- % Apoptotic ([1]; LPS (5 μg/ml), 0.1 nM): 31%
- % Apoptotic ([1]; LPS (5 μg/ml), 1 nM): 32%
- % Apoptotic ([1]; LPS (5 μg/ml), 10 nM): 44%
- % Apoptotic ([1]; LPS (5 μg/ml), 100 nM): 79%
- % Apoptotic ([1]; LPS (5 μg/ml), 1000 nM): 79%
- viability at 0.0001 µM ([1]; Anti-CD40 (10 μg/ml), 0.1 nM): 55%
- viability at 0.001 µM ([1]; Anti-CD40 (10 μg/ml), 1 nM): 51%
- viability at 0.01 µM ([1]; Anti-CD40 (10 μg/ml), 10 nM): 48%
- viability at 0.1 µM ([1]; Anti-CD40 (10 μg/ml), 100 nM): 5%
- viability at 1 µM ([1]; Anti-CD40 (10 μg/ml), 1000 nM): 3%
- viability at 0.0001 µM ([1]; BAFF (100 ng/ml), 0.1 nM): 55%
- viability at 0.001 µM ([1]; BAFF (100 ng/ml), 1 nM): 52%
- viability at 0.01 µM ([1]; BAFF (100 ng/ml), 10 nM): 43%
- viability at 0.1 µM ([1]; BAFF (100 ng/ml), 100 nM): 4%
- viability at 1 µM ([1]; BAFF (100 ng/ml), 1000 nM): 3%
- viability at 0.0001 µM ([1]; LPS (5 μg/ml), 0.1 nM): 63%
- viability at 0.001 µM ([1]; LPS (5 μg/ml), 1 nM): 63%
- viability at 0.01 µM ([1]; LPS (5 μg/ml), 10 nM): 51%
- viability at 0.1 µM ([1]; LPS (5 μg/ml), 100 nM): 15%
- viability at 1 µM ([1]; LPS (5 μg/ml), 1000 nM): 13%
- B cells apoptotic ([1]; concentrations 100 nM, with anti-CD40, LPS or BAFF): 80-90%
